Active and inactive are the calls of the source. The rule behind the calls is not given here.
Columns and labels:
[1] = tested on: Mus musculus; test: Plasma concentration in BALB/c mouse at 10 mg/kg, po; assay type: ADME, organism-based; set-up: dose 10 mg/kg, route oral; conditions: in vivo
[2] = molecular target: Tyrosine-protein kinase ABL1 (Homo sapiens, UniProt P00519); test: Inhibition of Abl by HTRF assay
[3] = molecular target: Angiopoietin-1 receptor (Homo sapiens, UniProt Q02763); test: Inhibition of Tie2 by HTRF assay
[4] = tested on: Blood; test: Inhibition of anti-CD3-induced IL2 production in human whole blood by ELISA; assay type: functional, tissue-based
[5] = molecular target: Proto-oncogene tyrosine-protein kinase Src (Homo sapiens, UniProt P12931); test: Inhibition of Src by HTRF assay
[6] = molecular target: Ribosomal protein S6 kinase beta-1 (Homo sapiens, UniProt P23443); test: Inhibition of P70S6K by HTRF assay
[7] = tested on: Mus musculus; test: Plasma concentration in BALB/c mouse at 100 mg/kg, po; assay type: ADME, organism-based; set-up: dose 100 mg/kg, route oral; conditions: in vivo
[8] = Inhibition of Aurora1 by HTRF assay
[9] = species: Mus musculus; test: Inhibition of anti-CD3-induced IL2 production in BALB/c mouse; assay type: functional
[10] = molecular target: Macrophage colony-stimulating factor 1 receptor (Homo sapiens, UniProt P07333); test: Inhibition of cFMS by HTRF assay
[11] = molecular target: Mitogen-activated protein kinase 14 (Homo sapiens, UniProt Q16539); test: Inhibition of p38alpha by HTRF assay
[12] = molecular target: Mitogen-activated protein kinase 3 (Homo sapiens, UniProt P27361); test: Inhibition of ERK1 by HTRF assay
[13] = molecular target: Tyrosine-protein kinase ITK/TSK (Homo sapiens, UniProt Q08881); test: Inhibition of Itk by HTRF assay
[14] = Volume of distribution at steady state in Sprague-Dawley rat at 0.5 mg/kg, iv; assay type: ADME, organism-based; set-up: dose 0.5 mg/kg, route intravenous; conditions: in vivo, read-out: Vdss
[15] = Cmax in Sprague-Dawley rat at 2 mg/kg, po; assay type: ADME, organism-based; set-up: dose 2 mg/kg, route oral; conditions: in vivo
[16] = molecular target: High affinity nerve growth factor receptor (Homo sapiens, UniProt P04629); test: Inhibition of TrkA by HTRF assay
[17] = molecular target: Tyrosine-protein kinase Fyn (Homo sapiens, UniProt P06241); test: Inhibition of Fyn by HTRF assay
[18] = molecular target: T1, Tyrosine-protein kinase JAK3 (Homo sapiens, UniProt P52333); test: Inhibition of Jak3 by HTRF assay
T1 sequence (P52333 whole entry): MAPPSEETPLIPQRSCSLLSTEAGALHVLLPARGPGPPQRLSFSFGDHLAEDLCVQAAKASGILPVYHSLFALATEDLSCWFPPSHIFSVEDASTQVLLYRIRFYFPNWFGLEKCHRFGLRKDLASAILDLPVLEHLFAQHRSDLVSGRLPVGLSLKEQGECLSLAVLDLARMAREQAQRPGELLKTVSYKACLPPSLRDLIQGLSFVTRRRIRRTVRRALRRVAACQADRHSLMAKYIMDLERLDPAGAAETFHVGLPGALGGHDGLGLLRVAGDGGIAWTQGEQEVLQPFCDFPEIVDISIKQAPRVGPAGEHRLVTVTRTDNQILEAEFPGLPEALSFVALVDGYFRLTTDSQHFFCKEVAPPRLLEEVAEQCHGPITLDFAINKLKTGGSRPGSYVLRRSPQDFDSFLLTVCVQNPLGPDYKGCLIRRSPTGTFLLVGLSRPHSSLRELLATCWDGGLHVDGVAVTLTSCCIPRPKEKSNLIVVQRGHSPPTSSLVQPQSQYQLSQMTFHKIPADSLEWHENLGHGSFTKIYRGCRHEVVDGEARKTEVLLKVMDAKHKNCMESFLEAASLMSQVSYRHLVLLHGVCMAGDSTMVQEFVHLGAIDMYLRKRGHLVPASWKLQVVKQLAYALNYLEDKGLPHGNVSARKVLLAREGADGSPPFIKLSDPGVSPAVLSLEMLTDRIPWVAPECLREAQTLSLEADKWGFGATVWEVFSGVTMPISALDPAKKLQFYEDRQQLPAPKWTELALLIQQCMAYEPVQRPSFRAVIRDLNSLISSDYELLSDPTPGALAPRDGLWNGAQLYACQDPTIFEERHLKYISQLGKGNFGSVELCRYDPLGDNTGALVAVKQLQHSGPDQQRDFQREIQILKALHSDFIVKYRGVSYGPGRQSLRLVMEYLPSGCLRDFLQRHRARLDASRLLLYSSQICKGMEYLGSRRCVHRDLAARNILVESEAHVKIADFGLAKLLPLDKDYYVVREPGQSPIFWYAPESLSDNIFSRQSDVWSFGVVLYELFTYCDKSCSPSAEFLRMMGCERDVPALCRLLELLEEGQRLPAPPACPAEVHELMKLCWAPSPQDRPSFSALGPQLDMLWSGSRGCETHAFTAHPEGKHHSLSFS

[19] = tested on: Jurkat; test: Inhibition of IL2 production in human Jurkat cells stimulated with phorbol 12-myristyl 13-acetate in presence of calcium ionophore; assay type: functional, cell-based
[20] = molecular target: Ribosomal protein S6 kinase alpha-5 (Homo sapiens, UniProt O75582); test: Inhibition of MSK1 by HTRF assay
[21] = molecular target: Vascular endothelial growth factor receptor 2 (Homo sapiens, UniProt P35968); test: Inhibition of KDR by HTRF assay
[22] = tested on: Mus musculus; test: Inhibition of anti-CD3-induced IL2 production in BALB/c mouse at 30 mg/kg, po by ELISA relative to control; assay type: functional
[23] = tested on: Mus musculus; test: Inhibition of anti-CD3-induced IL2 production in BALB/c mouse at 100 mg/kg, po by ELISA relative to control; assay type: functional
[24] = tested on: Lymphocyte; test: Inhibition of T cell activation in human peripheral blood lymphocytes by mixed lymphocyte reaction; assay type: functional, cell-based
[25] = Half life in Sprague-Dawley rat at 0.5 mg/kg, iv; assay type: ADME, organism-based; set-up: dose 0.5 mg/kg, route intravenous; conditions: in vivo
[26] = tested on: Mus musculus; test: Plasma concentration in BALB/c mouse at 30 mg/kg, po; assay type: ADME, organism-based; set-up: dose 30 mg/kg, route oral; conditions: in vivo
[27] = Oral bioavailability in Sprague-Dawley rat at 2 mg/kg; assay type: ADME, organism-based; conditions: in vivo
[28] = Inhibition of IRK by HTRF assay
[29] = molecular target: Tyrosine-protein kinase Lyn (Homo sapiens, UniProt P07948); test: Inhibition of Lyn by HTRF assay
[30] = tested on: Mus musculus; test: Inhibition of anti-CD3-induced IL2 production in BALB/c mouse at 10 mg/kg, po by ELISA relative to control; assay type: functional
[31] = tested on: Mus musculus; test: Inhibition of anti-CD3-induced IL2 production in orally dosed BALB/c mouse by ELISA; assay type: functional; conditions: po
[32] = Protein binding in mouse plasma; assay type: ADME, cell-free; conditions: read-out: PB (converted)
[33] = Clearance in Sprague-Dawley rat at 0.5 mg/kg, iv; assay type: ADME, organism-based; set-up: dose 0.5 mg/kg, route intravenous; conditions: in vivo
[34] = molecular target: Tyrosine-protein kinase SYK (Homo sapiens, UniProt P43405); test: Inhibition of Syk by HTRF assay
[35] = molecular target: Serine/threonine-protein kinase pim-1 (Homo sapiens, UniProt P11309); test: Inhibition of PIM1 by HTRF assay
[36] = molecular target: Tyrosine-protein kinase Lck (Homo sapiens, UniProt P06239)
Description: Inhibition of Lck by HTRF assay

[37] = molecular target: Mitogen-activated protein kinase 9 (Homo sapiens, UniProt P45984); test: Inhibition of JNK2 by HTRF assay
[38] = AUC (0 to infinity) in Sprague-Dawley rat at 2 mg/kg, po; assay type: ADME, organism-based; set-up: time infinity, dose 2 mg/kg, route oral; conditions: plasma
[39] = Inhibition of Aurora2 by HTRF assay
[40] = molecular target: Macrophage-stimulating protein receptor (Homo sapiens, UniProt Q04912); test: Inhibition of RON by HTRF assay
[41] = tested on: Blood; test: Inhibition of LPS-induced TNFalpha production in human whole blood by ELISA; assay type: functional, tissue-based
[42] = Inhibition of PKBalpha by HTRF assay
[43] = Protein binding in rat plasma; assay type: ADME, cell-free; conditions: read-out: PB (converted)
[44] = Tmax in Sprague-Dawley rat at 2 mg/kg; assay type: ADME, organism-based; set-up: dose 2 mg/kg; conditions: in vivo
[45] = Inhibition of PKAalpha by HTRF assay
[46] = tested on: Plasma; test: Unbound EC50 of ligand in mouse plasma
[47] = molecular target: Serine/threonine-protein kinase PAK 2 (Homo sapiens, UniProt Q13177); test: Inhibition of PAK2 by HTRF assay

Chain of Angiopoietin-1 receptor (Q02763 whole entry): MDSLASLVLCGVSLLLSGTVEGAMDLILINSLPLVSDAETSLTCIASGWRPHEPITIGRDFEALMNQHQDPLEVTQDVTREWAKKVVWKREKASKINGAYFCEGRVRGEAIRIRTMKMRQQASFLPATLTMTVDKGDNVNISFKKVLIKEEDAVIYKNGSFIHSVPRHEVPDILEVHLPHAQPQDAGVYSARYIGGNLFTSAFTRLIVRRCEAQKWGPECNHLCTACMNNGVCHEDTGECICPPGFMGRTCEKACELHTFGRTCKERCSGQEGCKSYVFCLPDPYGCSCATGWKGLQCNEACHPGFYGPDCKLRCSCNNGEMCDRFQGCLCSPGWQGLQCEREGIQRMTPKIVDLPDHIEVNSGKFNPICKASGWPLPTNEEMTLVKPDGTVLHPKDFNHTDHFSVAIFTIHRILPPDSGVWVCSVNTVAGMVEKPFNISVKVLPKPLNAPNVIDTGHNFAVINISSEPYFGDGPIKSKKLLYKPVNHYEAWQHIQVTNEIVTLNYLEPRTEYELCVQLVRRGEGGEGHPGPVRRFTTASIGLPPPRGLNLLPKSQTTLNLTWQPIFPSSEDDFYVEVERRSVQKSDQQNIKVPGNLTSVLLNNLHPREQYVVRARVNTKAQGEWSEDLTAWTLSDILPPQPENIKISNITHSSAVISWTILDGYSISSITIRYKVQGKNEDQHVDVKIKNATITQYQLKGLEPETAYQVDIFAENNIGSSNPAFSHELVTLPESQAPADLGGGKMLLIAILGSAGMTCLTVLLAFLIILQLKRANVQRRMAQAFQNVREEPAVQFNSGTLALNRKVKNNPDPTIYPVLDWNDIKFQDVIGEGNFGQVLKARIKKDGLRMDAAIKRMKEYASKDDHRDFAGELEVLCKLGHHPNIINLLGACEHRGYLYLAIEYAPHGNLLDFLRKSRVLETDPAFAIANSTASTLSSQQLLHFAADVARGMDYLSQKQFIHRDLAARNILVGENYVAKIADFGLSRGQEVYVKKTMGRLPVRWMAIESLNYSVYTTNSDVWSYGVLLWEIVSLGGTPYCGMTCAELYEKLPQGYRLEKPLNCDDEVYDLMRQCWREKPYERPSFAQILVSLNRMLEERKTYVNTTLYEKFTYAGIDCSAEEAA
Chain of Vascular endothelial growth factor receptor 2 (P35968 whole entry): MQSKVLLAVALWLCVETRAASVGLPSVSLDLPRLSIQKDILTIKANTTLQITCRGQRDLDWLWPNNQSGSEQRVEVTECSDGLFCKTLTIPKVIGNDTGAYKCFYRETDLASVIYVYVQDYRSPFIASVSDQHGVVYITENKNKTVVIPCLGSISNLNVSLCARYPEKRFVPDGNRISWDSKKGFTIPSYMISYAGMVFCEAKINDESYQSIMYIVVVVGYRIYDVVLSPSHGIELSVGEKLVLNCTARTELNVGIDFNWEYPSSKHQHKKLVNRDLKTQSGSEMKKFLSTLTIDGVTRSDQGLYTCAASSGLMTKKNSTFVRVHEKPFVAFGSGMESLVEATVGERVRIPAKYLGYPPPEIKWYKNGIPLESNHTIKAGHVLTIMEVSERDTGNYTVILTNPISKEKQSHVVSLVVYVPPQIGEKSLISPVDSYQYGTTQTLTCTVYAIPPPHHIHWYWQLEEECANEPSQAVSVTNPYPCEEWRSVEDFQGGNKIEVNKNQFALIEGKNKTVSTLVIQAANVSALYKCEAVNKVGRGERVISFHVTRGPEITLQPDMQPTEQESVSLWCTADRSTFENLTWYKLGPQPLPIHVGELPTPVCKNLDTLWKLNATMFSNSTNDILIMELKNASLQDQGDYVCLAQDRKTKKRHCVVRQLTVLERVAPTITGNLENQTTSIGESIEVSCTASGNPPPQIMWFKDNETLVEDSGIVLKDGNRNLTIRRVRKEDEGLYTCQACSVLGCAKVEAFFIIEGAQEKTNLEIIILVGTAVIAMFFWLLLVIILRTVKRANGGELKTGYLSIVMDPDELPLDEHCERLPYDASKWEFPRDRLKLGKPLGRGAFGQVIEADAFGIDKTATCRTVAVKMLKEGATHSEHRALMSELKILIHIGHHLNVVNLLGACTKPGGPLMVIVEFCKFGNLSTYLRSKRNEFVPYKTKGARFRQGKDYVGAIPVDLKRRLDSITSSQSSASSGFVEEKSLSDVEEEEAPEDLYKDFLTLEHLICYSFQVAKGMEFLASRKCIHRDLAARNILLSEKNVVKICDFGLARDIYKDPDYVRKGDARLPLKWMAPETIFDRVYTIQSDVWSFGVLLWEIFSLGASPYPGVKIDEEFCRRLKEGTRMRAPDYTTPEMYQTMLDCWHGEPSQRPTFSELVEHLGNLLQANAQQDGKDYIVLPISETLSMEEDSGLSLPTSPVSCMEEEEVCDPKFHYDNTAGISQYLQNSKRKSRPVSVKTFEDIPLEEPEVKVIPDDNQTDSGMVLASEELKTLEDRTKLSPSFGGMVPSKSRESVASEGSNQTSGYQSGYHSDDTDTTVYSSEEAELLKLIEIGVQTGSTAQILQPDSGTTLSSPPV
Chain of Mitogen-activated protein kinase 14 (Q16539 whole entry): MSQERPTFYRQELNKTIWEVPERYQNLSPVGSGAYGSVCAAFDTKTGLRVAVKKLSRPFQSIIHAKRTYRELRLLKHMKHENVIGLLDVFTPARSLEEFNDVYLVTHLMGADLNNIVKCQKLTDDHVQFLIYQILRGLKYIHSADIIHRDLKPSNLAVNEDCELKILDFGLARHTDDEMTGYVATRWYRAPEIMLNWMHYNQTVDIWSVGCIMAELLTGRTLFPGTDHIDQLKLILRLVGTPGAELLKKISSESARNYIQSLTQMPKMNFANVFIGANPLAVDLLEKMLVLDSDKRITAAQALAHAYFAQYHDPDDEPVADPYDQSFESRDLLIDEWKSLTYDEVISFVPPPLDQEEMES
Chain of Tyrosine-protein kinase Lck (P06239 whole entry): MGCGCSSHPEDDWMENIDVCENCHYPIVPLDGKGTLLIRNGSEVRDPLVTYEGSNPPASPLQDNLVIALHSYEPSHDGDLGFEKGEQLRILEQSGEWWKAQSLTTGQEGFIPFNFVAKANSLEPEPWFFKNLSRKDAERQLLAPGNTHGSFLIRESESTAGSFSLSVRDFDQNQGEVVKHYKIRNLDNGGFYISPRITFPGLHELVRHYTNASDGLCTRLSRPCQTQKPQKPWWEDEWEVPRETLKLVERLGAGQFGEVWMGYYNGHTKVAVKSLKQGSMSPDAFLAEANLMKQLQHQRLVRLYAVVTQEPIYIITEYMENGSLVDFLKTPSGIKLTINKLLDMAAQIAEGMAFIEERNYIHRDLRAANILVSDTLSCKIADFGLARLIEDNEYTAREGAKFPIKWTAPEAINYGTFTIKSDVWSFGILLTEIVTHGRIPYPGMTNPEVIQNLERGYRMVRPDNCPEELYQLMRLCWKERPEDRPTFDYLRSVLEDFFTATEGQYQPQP
Chain of Ribosomal protein S6 kinase beta-1 (P23443 whole entry): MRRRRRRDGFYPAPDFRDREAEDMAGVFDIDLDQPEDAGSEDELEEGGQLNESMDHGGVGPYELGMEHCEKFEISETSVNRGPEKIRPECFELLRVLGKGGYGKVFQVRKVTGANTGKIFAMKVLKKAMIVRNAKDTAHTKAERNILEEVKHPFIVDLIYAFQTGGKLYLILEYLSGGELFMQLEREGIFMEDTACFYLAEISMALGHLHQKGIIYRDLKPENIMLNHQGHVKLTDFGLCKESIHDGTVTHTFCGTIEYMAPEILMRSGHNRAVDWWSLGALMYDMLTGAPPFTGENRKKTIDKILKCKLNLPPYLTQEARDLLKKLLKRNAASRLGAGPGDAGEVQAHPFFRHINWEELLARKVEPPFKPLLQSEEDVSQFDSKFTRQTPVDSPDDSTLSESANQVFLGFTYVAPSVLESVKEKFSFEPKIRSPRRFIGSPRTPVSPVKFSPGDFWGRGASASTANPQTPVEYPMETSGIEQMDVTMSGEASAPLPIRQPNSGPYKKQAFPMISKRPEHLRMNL
Chain of Proto-oncogene tyrosine-protein kinase Src (P12931 2-536 limits assumed): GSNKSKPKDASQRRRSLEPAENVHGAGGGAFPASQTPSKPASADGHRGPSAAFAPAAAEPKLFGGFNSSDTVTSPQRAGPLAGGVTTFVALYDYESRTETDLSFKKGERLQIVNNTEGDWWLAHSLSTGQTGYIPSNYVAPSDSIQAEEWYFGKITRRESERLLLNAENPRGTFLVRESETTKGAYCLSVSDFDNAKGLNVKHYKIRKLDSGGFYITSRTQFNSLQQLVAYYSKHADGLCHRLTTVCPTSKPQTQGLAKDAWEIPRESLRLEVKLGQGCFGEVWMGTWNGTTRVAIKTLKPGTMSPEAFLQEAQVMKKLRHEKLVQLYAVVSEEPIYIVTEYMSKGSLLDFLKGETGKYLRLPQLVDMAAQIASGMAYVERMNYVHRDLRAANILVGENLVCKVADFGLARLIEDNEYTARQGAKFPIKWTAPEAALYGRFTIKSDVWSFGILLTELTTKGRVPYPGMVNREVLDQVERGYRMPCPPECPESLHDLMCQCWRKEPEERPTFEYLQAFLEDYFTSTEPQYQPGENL
Chain of Tyrosine-protein kinase ITK/TSK (Q08881 whole entry): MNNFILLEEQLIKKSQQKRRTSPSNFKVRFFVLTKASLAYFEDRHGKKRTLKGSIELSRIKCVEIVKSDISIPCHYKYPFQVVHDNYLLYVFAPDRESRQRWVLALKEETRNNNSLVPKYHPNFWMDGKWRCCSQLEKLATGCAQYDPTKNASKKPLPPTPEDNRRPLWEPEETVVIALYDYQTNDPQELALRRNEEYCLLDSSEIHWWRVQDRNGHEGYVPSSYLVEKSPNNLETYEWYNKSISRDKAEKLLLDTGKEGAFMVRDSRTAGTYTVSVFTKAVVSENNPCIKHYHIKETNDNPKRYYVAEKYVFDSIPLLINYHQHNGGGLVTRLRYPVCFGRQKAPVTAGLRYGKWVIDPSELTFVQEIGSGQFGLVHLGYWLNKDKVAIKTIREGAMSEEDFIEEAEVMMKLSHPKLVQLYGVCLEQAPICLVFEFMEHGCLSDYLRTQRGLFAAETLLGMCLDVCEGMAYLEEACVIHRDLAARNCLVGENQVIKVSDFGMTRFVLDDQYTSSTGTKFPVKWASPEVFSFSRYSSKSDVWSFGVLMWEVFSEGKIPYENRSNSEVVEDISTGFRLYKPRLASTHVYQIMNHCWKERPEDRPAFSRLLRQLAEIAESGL

## Cc1ccc(NC(=O)c2cccc(C(F)(F)F)c2)cc1C(=O)Nc1cnc(Nc2ccc(N3CCN(C)CC3)cc2)nc1
[1]
  concentration: 176 nM
[2]
  IC50: 2 nM
[3]
  IC50: 9950 nM
[4]
  IC50: 7 nM
[5]
  IC50: 3 nM
[6]
  IC50: > 100000 nM
[7]
  concentration: 1540 nM
[8]
  IC50: > 8300 nM
[9]
  Activity: Active
[10]
  IC50: 40 nM
[11]
  IC50: 5 nM
[12]
  IC50: > 100000 nM
[13]
  IC50: > 25000 nM
[14]
  Vd: 3.29 L/kg
[15]
  Cmax: 49 ng/mL
[16]
  IC50: > 5000 nM
[17]
  IC50: 3 nM
[18]
  IC50: > 25000 nM
[19]
  IC50: > 20000 nM
[20]
  IC50: > 100000 nM
[21]
  IC50: 24 nM
[22]
  inhibition in vivo at 30 mg/kg: 89%
[23]
  inhibition in vivo at 100 mg/kg: 91%
[24]
  IC50: 11 nM
[25]
  half-life: 3.2 h
[26]
  concentration: 434 nM
[27]
  bioavailability: 22%
[28]
  IC50: > 5000 nM
[29]
  IC50: 0.9 nM
[30]
  inhibition in vivo at 10 mg/kg: 53%
[31]
  ED50: 9.4 mg/kg
[32]
  fraction unbound: 0.022
[33]
  clearance: 17.3 mL/min/kg
[34]
  IC50: > 5000 nM
[35]
  IC50: > 30000 nM
[36]
  IC50: 0.6 nM
[37]
  IC50: 4290 nM
[38]
  AUC(0-inf): 419 ng·h/mL
[39]
  IC50: > 25000 nM
[40]
  IC50: > 25000 nM
[41]
  IC50: 718 nM
[42]
  IC50: > 100000 nM
[43]
  fraction unbound: 0.006
[44]
  Tmax: 4.67 h
[45]
  IC50: > 85000 nM
[46]
  EC50 unbound: 4 nM
[47]
  IC50: > 25000 nM

## C/C=C/C[C@@H](C)[C@@H](O)[C@H]1C(=O)N[C@@H](CC)C(=O)N(C)CC(=O)N(C)[C@@H](CC(C)C)C(=O)N[C@@H](C(C)C)C(=O)N(C)[C@@H](CC(C)C)C(=O)N[C@@H](C)C(=O)N[C@H](C)C(=O)N(C)[C@@H](CC(C)C)C(=O)N(C)[C@@H](CC(C)C)C(=O)N(C)[C@@H](C(C)C)C(=O)N1C [CYCLOSPORINE]
[9]
  ED50: 10 mg/kg

## Cc1ccc(NC(=O)c2cccc(C(F)(F)F)c2C)cc1C(=O)Nc1cnc(Nc2ccc(N3CCN(C)CC3)cc2)nc1
[3]
  IC50: > 8300 nM
[4]
  IC50: 2 nM
[11]
  IC50: 12 nM
[14]
  Vd: 5.45 L/kg
[15]
  Cmax: 28 ng/mL
[18]
  IC50: > 25000 nM
[21]
  IC50: 54 nM
[24]
  IC50: 60 nM
[25]
  half-life: 1.8 h
[27]
  bioavailability: 7%
[32]
  fraction unbound: 0.016
[33]
  clearance: 48.7 mL/min/kg
[38]
  AUC(0-inf): 92 ng·h/mL
[41]
  IC50: 1370 nM
[43]
  fraction unbound: 0.014
[44]
  Tmax: 2.75 h

## Cc1ccc(NC(=O)c2cccc(C(F)(F)F)c2)cc1C(=O)Nc1cnc(N)nc1
[3]
  IC50: > 25000 nM
[4]
  IC50: 1270 nM
[18]
  IC50: > 25000 nM
[21]
  IC50: 125 nM
[24]
  IC50: 107 nM
[41]
  IC50: > 10000 nM

## Cc1ccc(NC(=O)c2cc(F)cc(C(F)(F)F)c2)cc1C(=O)Nc1cnc(Nc2ccc(N3CCN(C)CC3)cc2)nc1
[3]
  IC50: 6080 nM
[4]
  IC50: 16 nM
[11]
  IC50: 3 nM
[14]
  Vd: 1.61 L/kg
[15]
  Cmax: 39 ng/mL
[18]
  IC50: > 25000 nM
[21]
  IC50: 17 nM
[24]
  IC50: 21 nM
[25]
  half-life: 3.8 h
[27]
  bioavailability: 8%
[32]
  fraction unbound: 0.018
[33]
  clearance: 8.17 mL/min/kg
[36]
  IC50: 0.3 nM
[38]
  AUC(0-inf): 332 ng·h/mL
[41]
  IC50: 1010 nM
[43]
  fraction unbound: 0.023
[44]
  Tmax: 0.6 h

From ChEMBL document CHEMBL1144680, “Structure-guided design of aminopyrimidine amides as potent, selective inhibitors of lymphocyte specific kinase: synthesis, structure-activity relationships, and inhibition of in vivo T cell activation” (J Med Chem, 2008)
